In US7863321B2, “Anti-cancer combinations” (Cancer Research Technology Limited, priority 2001, dated 2011):
Where a name gives a salt, the structure may show the parent alone. Read-outs that look alike come from different tables or passages of the source. Marks after values point to notes of the source that are not given here.

Tests used:
in vivo [1] = test: in vivo
Experimental: (§1) Compounds: A stock solution of DMXAA, synthesised in the Auckland Cancer Society Research Centre, was prepared in phosphate-buffered saline, protected from light and stored frozen. Cisplatin (Sigma Chemical Co., St. Louis, Mo.) was dissolved in 0.9% saline. Stock solutions of carboplatin and 5-fluorouracil (Bristol Myers Squibb, Sermonita, Italy) and cyclophosphamide (Mead Johnson Oncology Products, Princeton, N.J.) were diluted with sterile water. […] All compounds were administered to mice by i.p. injection at 0.01 ml/g bodyweight.
(§2) Animals and Tumours: Murine mammary carcinoma MDAH-Mca-4 tumours were grown from stocks stored in liquid nitrogen at the sixth transplant generation. Tumours (eighth transplant generation when used) were grown from 20 μl of cell suspension (7 mg packed cells), inoculated i.m. (intramuscular) in the right gastrocnemius muscle of female C3H/HeN mice (22-25 g at the time of treatment). Mice were randomised to treatment which commenced when the tumour+leg diameter reached 10-11 mm (0.5-0.7 g tumour).
(§3) Host Toxicity and Antitumour Activity: Mice were treated with chemotherapeutic drugs at a range of doses, at 1.33-fold increments, up to the expected MTD (maximum tolerated dose, as estimated in pilot experiments or from the literature). Toxicity was assessed as lethality, and body weight loss measured four days after treatment. Any animals becoming moribund were terminated and treated as drug-related deaths in the analysis. The diameter of the tumour-bearing leg was measured 3 times per week after treatment. Antitumour activity was assessed from the tumour growth delay, defined as the difference in time to reach the endpoint of 13 mm (1.5 g tumour) for treated and control groups. Responses were classed as cures if animals were free of evident tumour 120 days after treatment. The statistical significance of tumour growth inhibition was tested by ANOVA using SAS for Windows, with Dunnett's test to evaluate p-values for differences between treatment groups. In experiments with substantial numbers of cures (free of tumour for >120 days after treatment), statistical significance was tested by Kruskal-Wallis non-parametric analysis of variance using SAS for Windows, and the difference between treatment and control groups by Dunn's test using Sigmastat v2.0. The gradient and standard error of dose-response curves was determined by linear regression using Sigmastat, and the DMF (Dose Modifying Factor) calculated as the gradient with DMXAA/gradient without DMXAA.

MDAH-Mca-4 tumours = assay type: in vivo, C3H/HeN mice; settings: for DMF: Dose Modifying Factor = gradient with DMXAA (80 μmol/kg)/gradient without DMXAA; for growth delays at their MTDs: chemotherapy drug alone at MTD; for Slope of dose/response: growth delay vs dose, linear regression; for single agent activity against MDAH-Mca-4 tumour: doses up to MTD
Experimental: as §1, §2, §3

tumour blood flow = settings: Phase I clinical trials, well-tolerated doses; cited from earlier work
in vivo [2] = settings: female, C3H/HeN, mouse, plasma, ip, 80 μmol/kg
Experimental: (§4) Pharmacokinetics: Female C3H/HeN mice bearing MDAH-Mca-4 tumours (0.5-0.7 g) were injected i.p. with carboplatin (316 μmol/kg), DMXAA (80 μmol/kg), or simultaneously received carboplatin and DMXAA, at the same doses. […] Groups of 2-5 mice were used for each time point.
(§5) HPLC analysis of DMXAA: Concentrations of DMXAA in plasma were determined as follows. Aliquots of plasma (50 μl) were treated with 1 ml of ice-cold acetonitrile:methanol (3:1 v/v), centrifuged, and the resulting supernatants evaporated using a Speed-Vac solvent concentrator (Savant Instruments, NY). The residues were dissolved in 200 μl of 10 mM ammonium acetate buffer (pH 5) and 25 μl was analysed by HPLC using a HP1100 system with diode array detector (278 nm) and fluorescence detector. The column used was a 3.2 mm×150 mm C8 5 μm column (Alltima Associates Inc., Deerfield, Ill.) and a flow rate of 0.7 ml/min, with a mobile phase of 16% acetonitrile (v/v) in 10 mM ammonium acetate buffer (pH 5). The retention time for DMXAA was 7.3 min. […] The intra- and inter-assay precision and accuracy gave coefficients of variation <7%, and an average recovery of 70%. The lower sensitivity limit of detection by fluorescence (signal:noise ratio of 3) was 0.1 μM. […]

[3] = test system: PSN1 pancreatic tumour xenografts; test: PSN1 xenograft tumour volume tripling and doubling time; settings: i.v., DMXAA 20 mg/kg, gemcitabine 240 mg/kg, female MF1 nude mice; for PSN1 volume doubling times, Median: control 3.2; for PSN1 volume tripling times, Median: control 4.9
[4] = Pharmacokinetics of carboplatin (platinum by ICP-MS) and DMXAA (HPLC) in plasma and tumour; settings: plasma; DMXAA 80 μmol/kg i.p.; (% CV)
Experimental: as §4, §5

[5] = chemotherapy drug co-administered with DMXAA 80 μmol/kg, i.p.
[6] = female, C3H/HeN, mouse, in vivo, ip, MTD
[7] = chemotherapy drug alone, ± standard error of the slope
[8] = co-administered with DMXAA 80 μmol/kg
[9] = chemotherapy drug alone, i.p., mice bearing MDAH-Mca-4 tumours
[10] = DMXAA alone at 80 μmol/kg, i.p.
[11] = female, C3H/HeN, mouse, in vivo, ip

Structure (SMILES) | % body weight change at 4 days (in vivo [1]; chemotherapy drug alone, i.p.) | % body weight change at 4 days (in vivo [1]; [5]) | MTD (in vivo [1]; [6]) | DMF (MDAH-Mca-4 tumours) | growth delays at their MTDs (MDAH-Mca-4 tumours) | Slope of dose/response (MDAH-Mca-4 tumours; [7]) | Slope of dose/response (MDAH-Mca-4 tumours; [8]) | single agent activity against MDAH-Mca-4 tumour (MDAH-Mca-4 tumours; chemotherapy drug alone) | other results
O=c1[nH]cc(F)c(=O)[nH]1 [5-fluorouracil, 5-fluoro-2,4(1H,3H)-pyrimidinedione] | −8.5 ± 0.8% | −14.1 ± 1.5% | 1780 µmol/kg | 0.5 ± 0.2 | ~10 days | 0.0051 ± 0.001^a days/μmol/kg | 0.0027 ± 0.001 days/µmol/kg | – | –
N.N.[Cl][Pt][Cl] [Cisplatin] | −9.5 ± 1.4% | −14.4 ± 2.3% | – | 1.8 ± 1.2 | ~10 days | 0.19 ± 0.06 days/µmol/kg | 0.35 ± 0.12 days/µmol/kg | – | MTD (in vivo [1]; [9]): 42.1 µmol/kg; MTD (in vivo [1]; [5]): 42.1 µmol/kg
Cc1ccc2c(=O)c3cccc(CC(=O)O)c3oc2c1C [DMXAA, 5,6-dimethylxanthenone-4-acetic acid] | – | – | – | – | – | – | – | – | mean tumour growth delays (range) (MDAH-Mca-4 tumours; [10]): 3.5 to 8.3 days; tumour growth delay, overall mean (MDAH-Mca-4 tumours; [10]): 6.6 ± 0.6 days; tumour blood flow by dynamic MRI (tumour blood flow): significant reduction in tumour blood flow; Km (in vivo [2]): 220 µM; PSN1 volume doubling times, Treated-Control [3]: 0.4 days; PSN1 volume tripling times, Treated-Control [3]: 1.1 days; PSN1 volume doubling times, Median [3]: 3.6 days; PSN1 volume tripling times, Median [3]: 6.0 days; Vmax [4]: 63 (6.1) μm hr^−1
O=P1(N(CCCl)CCCl)NCCCO1 (centres unmarked) [Cyclophosphamide, 2-[bis(2-chloroethyl)amino]tetrahydro-2H-13,2-oxazaphosphorine-2-oxide monohydrate] | −0.8 ± 1.3% | −9.2 ± 1.4% | – | 2.7 ± 0.3 | ~10 days | 0.0062 ± 0.0001 days/µmol/kg | 0.0167 ± 0.0013 days/µmol/kg | – | MTD at 4 days (in vivo [1]; [11]): ≥ 1340 µmol/kg
CC[C@]1(O)C[C@H]2CN(CCc3c([nH]c4ccccc34)[C@@](C(=O)OC)(c3cc4c(cc3OC)N(C=O)[C@H]3[C@@](O)(C(=O)OC)[C@H](OC(C)=O)[C@]5(CC)C=CCN6CC[C@]43[C@@H]65)C2)C1 [Vincristine] | −7.0 ± 1.2% | −10.0 ± 1.4% | – | >7^c | – | -0.0 ± 1.3 days/µmol/kg | 14.1 ± 5.4 days/µmol/kg | essentially inactive | MTD (in vivo [1]; female, C3H/HeN, mouse, in vivo, ip, MTD, chemotherapy drug alone, mice bearing MDAH-Mca-4 tumours): 1 µmol/kg; MTD (in vivo [1]; female, C3H/HeN, mouse, in vivo, ip, MTD, chemotherapy drug co-administered with DMXAA 80 μmol/kg): 1 µmol/kg
COc1cccc2c1C(=O)c1c(O)c3c(c(O)c1C2=O)C[C@@](O)(C(=O)CO)C[C@@H]3O[C@H]1C[C@H](N)[C@H](O)[C@H](C)O1 [Doxorubicin, (8S,10S)-10-[(3-amino-2,3,6-trideoxy-a-L-lyxo-hexopyranosyl)oxy]-8-glycolyl-7,8,9,10-tetrahydro-6,8,11-trihydroxy-1-meth-oxy-5,12-naphthacenedione hydrochloride] | −3.9 ± 0.6% | −5.5 ± 1.2% | 23.7 µmol/kg | 2.5 ± 1.1 | ~10 days | 0.42 ± 0.10 days/µmol/kg | – | – | MTD (in vivo [1]; [11]): 17.8 µmol/kg
COc1cc([C@@H]2c3cc4c(cc3[C@@H](O[C@@H]3O[C@@H]5CO[C@@H](C)O[C@H]5[C@H](O)[C@H]3O)[C@H]3COC(=O)[C@H]23)OCO4)cc(OC)c1O [Etoposide, 4′-demethylepipodophyllotoxin-9-[4,6-0-(R)-ethylidene-(beta)-D-glucopyranoside]] | −2.0 ± 1.7% | −6.5 ± 3.3% | ≥ 75 µmol/kg | 4.7 ± 2.9 | – | 0.030 ± 0.010 days/µmol/kg | 0.14 ± 0.04 days/µmol/kg | essentially inactive | –
N.N.O=C([O-])C1(C(=O)[O-])CCC1.[Pt+2] [Carboplatin, platinum, diammine [1,1-cyclobutanedicarboxylato(2-)-0,0′]-, (SP-4-2)] | −5.6 ± 1.5% | −8.5 ± 1.4% | – | 3.4 ± 2.3 | – | 0.0094 ± 0.0035 days/µmol/kg | 0.032 ± 0.010 days/µmol/kg | essentially inactive | MTD (in vivo [1]; [9]): 316 µmol/kg; MTD (in vivo [1]; [5]): 316 µmol/kg
Nc1ccn([C@@H]2O[C@H](CO)[C@@H](O)C2(F)F)c(=O)n1 [gemcitabine, 2′-deoxy-2′,2′-difluorocytidine monohydrochloride (b-isomer)] | – | – | – | – | – | – | – | – | PSN1 volume doubling times, Treated-Control [3]: 7.5 days; PSN1 volume tripling times, Treated-Control [3]: 9.0 days; PSN1 volume doubling times, Median [3]: 9.7 days; PSN1 volume tripling times, Median [3]: 13.9 days
